Laboratory results: US9586943B2, “Bilaterally-substituted tricyclic compounds for the treatment of human immunodeficiency virus type-1 (HIV-1) infection and other diseases” (CENTRO DE INVESTIGACIÓN PRINCIPE FELIPE, priority 2013, dated 2017)
Where two headings read alike, the source gives them in different places. Numbered stars: 1 amine (or outer) side, 2 acyl side, 3 side chain; on linkers, the order of the positions; unused ones are H or OH. Suc = O=C(CCC(=O)[*:2])[*:1]

How the values were obtained:
[1] = tested on: Escherichia coli (ATCC 53868); experiment: Disk diffusion assay (Kirby-Bauer), E. coli; assay type: cell-based; conditions: disk potency 20 μg, 8 mm discs, 16-18 hours at 37° C.
[2] = tested on: Staphilococcus aureus (ATCC 35556); experiment: Disk diffusion assay (Kirby-Bauer), S. aureus; assay type: cell-based; conditions: disk potency 20 μg, 8 mm discs, 16-18 hours at 37° C.
RREc hairpin = experiment: SPR binding specificity relative to control RREc hairpin; parameters: species or system HIV-1
Experimental: (§1) The interaction of these biphenyl and terphenyl compounds with the RRE RNA hairpin (SEQ. ID. No 1) was analysed using surface plasmon resonance (SPR) experiments(19). In addition to the RRE, two control RREc (SEQ. ID. No 2) and TARc (SEQ. ID. No 3) hairpins were also immobilised on the chips. In the RREc hairpin the internal loop forming the Rev high-affinity binding site is replaced with a G:G opposition, whereas in the TARc hairpin this loop is substituted with the HIV-1 Tat-binding UCU bulge(20). In this way, applicants could simultaneously assess the interaction of each ligand with RRE, RREc and TARc, obtaining important information about binding selectivity. In addition, the SPR methodology allows deduction of binding stoichiometries, which are likewise related to the specificity of the interaction between a ligand and a given RNA species. These are key considerations in the nucleic acid recognition field(4, 5, 14).
(§2) The Surface Plasmon Resonance (SPR) experiments were carried out at 25° C. with a Biacore T100 optical biosensor system, 4-channel streptavidin-derivatized Series S SA chips, and either 10 mM MES (pH 6.25), 150 mM NaCl, 1 mM EDTA and 0.005% P20 or 10 mM HEPES pH 7.4, 150 mM NaCl, 3 mM EDTA and 0.005% P20 aqueous solutions as mobile phases. After immobilizing approximately 300 response units (RU) of the RRE, RREc and TARc RNA hairpins on the chips, the compounds were injected during 10-minute periods at a flow rate of 20 μL/min and at concentrations generally ranging from 0.01 μM to 100.0 μM, and then allowed to dissociate for 10 more minutes. The RNA surfaces were regenerated with solutions containing 0.5 to 1 M NaCl and 10 to 100 mM NaOH, depending on the ligand.
(§3) RNA-ligand SPR equilibrium dissociation constants (Kd) were determined by fitting the sensorgrams to one-site or two-site equations:
(§4) [formula] [formula] where RU is the response in the steady-state region of the sensorgrams, C is the concentration of free compound in equilibrium with the complex, RUmax is the maximum response and RI is an offset term accounting for the bulk refractive index contribution of the sample. In these models, Kd, RUmax and RI are adjustable parameters, and the stoichiometry of each binding site was determined by comparing the fitted RUmax values with the predicted ones, calculated from the molecular weights of RNA and compound and the amount of RNA in the flow cell(32). The two-site equation was only utilized if it provided a clear curve-fitting improvement over the one-site model. The specificity of the RRE interaction was quantified by calculating the Kd(RREc)/Kd(RRE) and Kd(RRE)/Kd(TARc) ratios. All SPR experiments were double-referenced(33).

[3] = target: RRE-Rev34-50 interaction (RRE hairpin and frevp); experiment: Fluorescence polarization displacement assay of the RRE-Rev34-50 interaction; assay type: binding, HIV-1
HIV-1 (NL4.3-Ren) = experiment: microbe, parasite or virus in culture; assay type: cell-based; conditions: for EC50: Human immunodeficiency virus 1, 48 h, read-out: EC50 (NL4.3-Ren)
[4] = target: RRE RNA hairpin (internal loop IIB); experiment: SPR analysis of interaction with RRE RNA hairpin; assay type: binding, HIV-1
[5] = Cellular viability (CellTiter Glo); assay type: cell-based; conditions: human, MT-2 cells; 48 h, CellTiter Glo; read-out: CC50 (celular viability)
TARc hairpin = experiment: SPR binding specificity relative to control TARc hairpin; parameters: species or system HIV-1
Experimental: as §1, §2, §3
as §4, with “The specificity of the RRE interaction was quantified by calculating the Kd(RREc)/Kd(RRE) and Kd(RRE)/Kd(TARc) ratios.” left out

MT-2 cells = experiment: Cellular viability (CellTiter Glo); assay type: cell-based
RRE hairpin = experiment: Two-dimensional NMR (TOCSY) titration of the RRE hairpin; assay type: binding, HIV-1; conditions: D2O, pH 6.0
[6] = read-out: IC50 (RRE-Rev 50% inhibitory concentration), fluorescence polarization, 25° C., 60 nM RRE and 10 nM frevp
[7] = 25° C., pH 6.3, high affinity site when two-site model, JB-399 and IIS-530: ligand range 0.1-25 μM, read-out: Kd(RRE)
[8] = 25° C., pH 7.4, high affinity site when two-site model, footnote d compounds: ligand range 0.1-25 μM, read-out: Kd(RRE)

Compound	disk susceptibility of E. coli (diameter of the inhibition area) [1]	disk susceptibility of S. aureus (diameter of the inhibition area) [2]	IC50 [3, 6]	EC50 (HIV-1 (NL4.3-Ren))	Kd [4, 7]	CC50 at 48 h [5]	Kd(TARc)/Kd(RRE) (TARc hairpin; 25° C., pH 6.3)	other results
CC1(C)S[C@@H]2[C@H](NC(=O)[C@H](N)c3ccccc3)C(=O)N2[C@H]1C(=O)O [Ampicillin, ampicillin]	25.6 ± 1.7	38.1 ± 1.6						
COc1cc(CCN)c(-c2ccc(-c3cc(CCN)c(OCc4ccccc4)c(CCN)c3)c(OC)c2)c(CCN)c1 [IIS-311, 2,2′,2″,2′″-(4″-(benzyloxy)-3′,4-dimethoxy-[1,1′:4′,1″-terphenyl]-2,3″,5″,6-tetrayl)tetraethanamine]			162 ± 118 µM	> 100 µM	9.4 ± 5.7 µM	> 100 µM	3.2	Kd(RREc)/Kd(RRE) (RREc hairpin; 25° C., pH 6.3): 4.9
COc1cc(CCN)c(-c2ccc(-c3cc(CCN)c(OCc4ccc(C(F)(F)F)cc4)c(CCN)c3)c(OC)c2)c(CCN)c1 [IIS-478, 2,2′,2″,2′″-(3′,4-dimethoxy-4″-((4-(trifluoromethyl)benzyl)oxy)-[1,1′:4′,1″-terphenyl]-2,3″,5″,6-tetrayl)tetraethanamine]	inactive	inactive	232 ± 32.7 µM	> 100 µM		> 100 µM		Kd(RREc)/Kd(RRE) (RREc hairpin; 25° C., pH 7.4): 10.3; Kd [4, 8]: 14 ± 5.1 µM; Kd(TARc)/Kd(RRE) (TARc hairpin; 25° C., pH 7.4): 9.6
COc1cc(CCN)c(-c2ccc(-c3cc(CCN)c(OCC4CCCCC4)c(CCN)c3)c(OC)c2)c(CCN)c1 [IIS-530, 2,2′,2″,2′″-(4″-(cyclohexylmethoxy)-3′,4-dimethoxy-[1,1′:4′,1″-terphenyl]-2,3″,5″,6-tetrayl)tetraethanamine]			75.5 ± 39.9 µM	> 100 µM	46.2 ± 32 µM	> 100 µM	4.0	Kd(RREc)/Kd(RRE) (RREc hairpin; 25° C., pH 6.3): 1.3
CCc1cc(-c2c(CCN)cc(OC)cc2CCN)ccc1-c1cc(CCN)c(O)c(CCN)c1 [IIS-792, 2″,3,5,6″-tetrakis(2-aminoethyl)-2′-ethyl-4″-methoxy-[1,1′:4′,1″-terphenyl]-4-ol]			93.6 ± 24.4 µM	46.3 µM		> 100 µM		Kd(RREc)/Kd(RRE) (RREc hairpin; 25° C., pH 7.4): 1.2; inhibition of HIV-1 replication (in words) (HIV-1 (NL4.3-Ren)): inhibited HIV-1 replication; Kd [4, 8]: 8.1 ± 1.8 µM; cellular toxicity (in words) (MT-2 cells): no cellular toxicity; Kd(TARc)/Kd(RRE) (TARc hairpin; 25° C., pH 7.4): 1.6
CCc1cc(-c2c(CCN)cc(OC)cc2CCN)cc(CC)c1-c1cc(CCN)c(O)c(CCN)c1 [IIS-806, 2″,3,5,6″-Tetrakis(2-aminoethyl)-2′,6′-diethyl-4″-methoxy-(1,1′:4′,1″-terphenyl)-4-ol chlorhydrate]			56.4 ± 13.5 µM	64.1 µM		> 100 µM		Kd(RREc)/Kd(RRE) (RREc hairpin; 25° C., pH 7.4): 1.1; RRE interaction by NMR chemical shift perturbation (in words) (RRE hairpin): greatest RNA chemical shift variations; inhibition of HIV-1 replication (in words) (HIV-1 (NL4.3-Ren)): inhibited HIV-1 replication; Kd [4, 8]: 8.1 ± 1.1 µM; cellular toxicity (in words) (MT-2 cells): no cellular toxicity; Kd(TARc)/Kd(RRE) (TARc hairpin; 25° C., pH 7.4): 1.3
COc1cc(CCN)c(-c2cc(CCN)c(O)c(CCN)c2)c(CCN)c1 [JB-398, 2′,3,5,6′-tetrakis(2-aminoethyl)-4′-methoxy-[1,1′-biphenyl]-4-ol]				> 100 µM	31.1 ± 5 µM	> 100 µM	3.7	RRE interaction by NMR chemical shift perturbation (in words) (RRE hairpin): weak; IC50 ([3]; fluorescence anisotropy, read-out: IC50 (RRE-Rev34-50 inhibition)): 22.1 µM
COc1cc(CCN)c(-c2ccc(-c3cc(CCN)c(O)c(CCN)c3)cc2)c(CCN)c1 [JB-399, 2″,3,5,6″-tetrakis(2-aminoethyl)-4″-methoxy-[1,1′:4′,1″-terphenyl]-4-ol]			23.4 ± 3.6 µM	> 100 µM	14.4 ± 6.8 µM	> 100 µM	11.7	
NC[C@H]1O[C@H](O[C@H]2[C@H](O)[C@@H](O[C@H]3O[C@H](CO)[C@@H](O)[C@H](N)[C@H]3O)[C@H](N)C[C@@H]2N)[C@H](O)[C@@H](O)[C@@H]1O [Kanamycin A, kanamycin A]	22.0 ± 2.0	16.5 ± 1.1						
NC[C@H]1O[C@H](O[C@H]2[C@H](O)[C@@H](O[C@H]3O[C@H](CO)[C@@H](O)[C@H](N)[C@H]3O)[C@H](N)C[C@@H]2N)[C@H](N)[C@@H](O)[C@@H]1O [Kanamycin B, kanamycin B]	20.0 ± 2.1	16.7 ± 1.2						
COc1cc(CCN)c(-c2c(CCN)cc(OC)cc2CCN)c(CCN)c1 [SC-30, 2,2′,2″,2′″-(4,4′-dimethoxy-[1,1′-biphenyl]-2,2′,6,6′-tetrayl)tetraethanamine]	inactive	inactive	309 ± 68.9 µM	50 to 100 µM	> 100 µM	> 100 µM		RRE interaction by NMR chemical shift perturbation (in words) (RRE hairpin): unspecific
NC[C@H]1O[C@H](O[C@H]2[C@H](O)[C@@H](O[C@H]3O[C@H](CO)[C@@H](O)[C@H](N)[C@H]3O)[C@H](N)C[C@@H]2N)[C@H](N)C[C@@H]1O [Tobramycin, tobramycin]	18.8 ± 2.2	17.6 ± 0.8						
succynyl-TRQARRNRRRRWRERQRAAAAR-amide (Suc-TRQARRNRRRRWRERQRAAAAR-NH2; SMILES C[C@H](NC(=O)[C@H](C)NC(=O)[C@H](C)NC(=O)[C@H](CCCNC(=N)N)NC(=O)[C@H](CCC(N)=O)NC(=O)[C@H](CCCNC(=N)N)NC(=O)[C@H](CCC(=O)O)NC(=O)[C@H](CCCNC(=N)N)NC(=O)[C@H](Cc1c[nH]c2ccccc12)NC(=O)[C@H](CCCNC(=N)N)NC(=O)[C@H](CCCNC(=N)N)NC(=O)[C@H](CCCNC(=N)N)NC(=O)[C@H](CCCNC(=N)N)NC(=O)[C@H](CC(N)=O)NC(=O)[C@H](CCCNC(=N)N)NC(=O)[C@H](CCCNC(=N)N)NC(=O)[C@H](C)NC(=O)[C@H](CCC(N)=O)NC(=O)[C@H](CCCNC(=N)N)NC(=O)[C@@H](NC(=O)CCC(=O)O)[C@@H](C)O)C(=O)N[C@@H](C)C(=O)N[C@@H](CCCNC(=N)N)C(N)=O) [revp, reference compound]								Kd(RREc)/Kd(RRE) (RREc hairpin): 14.5; Ki ([3]; calculated from IC50, read-out: Ki inhibition constant): 0.0041 ± 0.0008 µM; Kd ([4]; one-site model, read-out: equilibrium dissociation constant Kd (RRE)): 0.0042 ± 0.0034 µM; Kd(TARc)/Kd(RRE) (TARc hairpin): 4.4
